Measured values as given in ChEMBL document CHEMBL4303121, “Human organs-on-chips as tools for repurposing approved drugs as potential influenza and COVID19 therapeutics in viral pandemics” (2020).

Columns and labels:
SARS-CoV-2 [1] = assay: Inhibition of SARS-CoV-2 pseudoparticle entry in Huh-7 cells, assessed by luciferase assay after 72 hrs; assay type: functional, Homo sapiens; conditions: Severe acute respiratory syndrome coronavirus 2, Huh-7, 72 h; for inhibition at 1 µM: CONC 1 uM; for inhibition at 5 µM: CONC 5 uM
SARS-CoV-2 [2] = assay: Inhibition of SARS-CoV-2 pseudoparticle entry in human lung Airway Chip at reported drug Cmax, assessed by qRT-PCR after 48 hrs; assay type: functional; conditions: Severe acute respiratory syndrome coronavirus 2, Lung epithelium
[3] = Assessment of cytotoxicity in Huh-7 cells, assessed as % inhibition of cell viability by Celltiter-Glo assay after 48 hrs; assay type: toxicity, cell-based; conditions: human, read-out: Inhibition; for cytotoxicity at 48 h, 1 µM: conc 1 uM; for cytotoxicity at 48 h, 5 µM: conc 5 uM

| Structure (SMILES) | inhibition at 1 µM (SARS-CoV-2 [1]) [%] | inhibition at 5 µM (SARS-CoV-2 [1]) [%] | inhibition at 0.81 µM (SARS-CoV-2 [2]; CONC 0.81 uM) [%] | cytotoxicity at 48 h, 1 µM [3] [%] | cytotoxicity at 48 h, 5 µM [3] [%] | inhibition at 20.04 µM (SARS-CoV-2 [2]; CONC 20.04 uM) [%] | inhibition at 1.24 µM (SARS-CoV-2 [2]; CONC 1.24 uM) [%] | inhibition at 1.91 µM (SARS-CoV-2 [2]; CONC 1.91 uM) [%] | inhibition at 0.83 µM (SARS-CoV-2 [2]; CONC 0.83 uM) [%] | inhibition at 2.98 µM (SARS-CoV-2 [2]; CONC 2.98 uM) [%] | inhibition at 3.89 µM (SARS-CoV-2 [2]; CONC 3.89 uM) [%] |
| --- | --- | --- | --- | --- | --- | --- | --- | --- | --- | --- | --- |
| COc1ccc(CCN(C)CCCC(C#N)(c2ccc(OC)c(OC)c2)C(C)C)cc1OC (stereo not drawn) | 15 | 50 | 10 | – | – | – | – | – | – | – | – |
| CCCCc1oc2ccccc2c1C(=O)c1cc(I)c(OCCN(CC)CC)c(I)c1 [AMIODARONE] | 55 | 70 | – | 1 | 2 | 20 | – | – | – | – | – |
| CCN(CC)Cc1cc(Nc2ccnc3cc(Cl)ccc23)ccc1O [AMODIAQUINE] | 70 | 90 | – | 1 | -5 | – | 60 | – | – | – | – |
| CCN(CC)CCCC(C)Nc1ccnc2cc(Cl)ccc12 (stereo not drawn) [CHLOROQUINE] | 50 | 85 | – | 2 | 3 | – | – | 10 | – | – | – |
| CCN(CC)CCOc1ccc(C(=C(Cl)c2ccccc2)c2ccccc2)cc1 [CLOMIPHENE] | 60 | 80 | – | 2 | 12 | – | – | – | 30 | – | – |
| CN(C)CCOc1ccc(/C(=C(/CCCl)c2ccccc2)c2ccccc2)cc1 [TOREMIFENE] | 30 | 65 | – | 1 | 10 | – | – | – | – | 50 | – |
| CCOC(=O)c1c(CSc2ccccc2)n(C)c2cc(Br)c(O)c(CN(C)C)c12 [UMIFENOVIR] | 5 | 75 | – | 1 | 10 | – | – | – | – | – | 20 |
